Results taken from patent publication US10717716B2, “1,3,4-oxadiazole derivative compounds as histone deacetylase 6 inhibitor, and the pharmaceutical composition comprising the same” (Chong Kun Dang Pharmaceutical Corp., priority 2015, dated 2020).

Tests used:
human recombinant HDAC1 = biological target: T1, human recombinant HDAC1 (Homo sapiens, UniProt Q13547); assay: HDAC1 enzyme activity inhibition assay (HDAC Fluorimetric Drug Discovery Kit); type: biochemical; details: human recombinant HDAC1, Fluor de Lys substrate 10 μM, 30° C. 60 minutes
T1 construct: purchased Enzo Life Science BML-SE456
T1 sequence (Q13547 whole entry): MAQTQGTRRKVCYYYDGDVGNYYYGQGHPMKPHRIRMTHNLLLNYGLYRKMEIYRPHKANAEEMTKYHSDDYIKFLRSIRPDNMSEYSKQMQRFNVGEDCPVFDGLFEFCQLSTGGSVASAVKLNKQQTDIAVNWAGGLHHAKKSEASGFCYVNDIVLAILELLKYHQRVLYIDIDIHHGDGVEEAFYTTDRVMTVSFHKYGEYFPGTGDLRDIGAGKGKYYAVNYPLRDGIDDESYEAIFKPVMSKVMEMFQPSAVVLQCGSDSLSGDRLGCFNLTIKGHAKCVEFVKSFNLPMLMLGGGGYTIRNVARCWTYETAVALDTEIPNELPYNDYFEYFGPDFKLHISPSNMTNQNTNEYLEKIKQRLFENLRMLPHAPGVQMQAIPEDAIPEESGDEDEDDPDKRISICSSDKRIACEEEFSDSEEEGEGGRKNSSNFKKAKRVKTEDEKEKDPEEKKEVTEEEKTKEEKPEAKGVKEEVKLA
Procedure: In order to examine the HDAC6 selectivity of the compounds of formula I of the present invention by HDAC1 and HDAC6 enzymatic activity inhibition assays, an experiment was performed using a conventional substance as a control.
HDAC enzyme activity was measured using a HDAC Fluorimetric Drug Discovery Kit (BML-AK511, 516, Enzo Life Science). For the HDAC1 enzyme activity test, human recombinant HDAC1 (BML-SE456) was used as an enzyme source, and Fluor de Lys®-“SIRT1 (BNL-KI177) was used as a substrate. A 5-fold dilution of the compound was seeded into a 96-well plate, and then 0.3 μg of the enzyme and 10 μM of the substrate were added to each well of the plate and allowed to react at 30° C. for 60 minutes. Then, Fluor de Lys®-Developer II (BML-KI176) was added thereto and allowed to react for 30 minutes, after which the fluorescence value (Ex 360, Em 460) was measured using a multi-plate reader (Flexstation 3, Molecular Device). The HDAC6 enzyme was tested using human recombinant HDAC6 (382180) (Calbiochem) according to the same protocol as the HDAC1 enzyme activity test method. Based on the resulting values, each IC5, value was calculated using GraphPad Prism4.0 program.

human recombinant HDAC6 = biological target: T2, human recombinant HDAC6 (Homo sapiens, UniProt Q9UBN7); assay: HDAC6 enzyme activity inhibition assay (HDAC Fluorimetric Drug Discovery Kit); type: biochemical; details: for HDAC6 selectivity (fold): HDAC6 over HDAC1; for IC50: human recombinant HDAC6, same protocol as HDAC1, read-out: HDAC6
T2 construct: purchased Calbiochem 382180
T2 sequence (Q9UBN7 1-1215): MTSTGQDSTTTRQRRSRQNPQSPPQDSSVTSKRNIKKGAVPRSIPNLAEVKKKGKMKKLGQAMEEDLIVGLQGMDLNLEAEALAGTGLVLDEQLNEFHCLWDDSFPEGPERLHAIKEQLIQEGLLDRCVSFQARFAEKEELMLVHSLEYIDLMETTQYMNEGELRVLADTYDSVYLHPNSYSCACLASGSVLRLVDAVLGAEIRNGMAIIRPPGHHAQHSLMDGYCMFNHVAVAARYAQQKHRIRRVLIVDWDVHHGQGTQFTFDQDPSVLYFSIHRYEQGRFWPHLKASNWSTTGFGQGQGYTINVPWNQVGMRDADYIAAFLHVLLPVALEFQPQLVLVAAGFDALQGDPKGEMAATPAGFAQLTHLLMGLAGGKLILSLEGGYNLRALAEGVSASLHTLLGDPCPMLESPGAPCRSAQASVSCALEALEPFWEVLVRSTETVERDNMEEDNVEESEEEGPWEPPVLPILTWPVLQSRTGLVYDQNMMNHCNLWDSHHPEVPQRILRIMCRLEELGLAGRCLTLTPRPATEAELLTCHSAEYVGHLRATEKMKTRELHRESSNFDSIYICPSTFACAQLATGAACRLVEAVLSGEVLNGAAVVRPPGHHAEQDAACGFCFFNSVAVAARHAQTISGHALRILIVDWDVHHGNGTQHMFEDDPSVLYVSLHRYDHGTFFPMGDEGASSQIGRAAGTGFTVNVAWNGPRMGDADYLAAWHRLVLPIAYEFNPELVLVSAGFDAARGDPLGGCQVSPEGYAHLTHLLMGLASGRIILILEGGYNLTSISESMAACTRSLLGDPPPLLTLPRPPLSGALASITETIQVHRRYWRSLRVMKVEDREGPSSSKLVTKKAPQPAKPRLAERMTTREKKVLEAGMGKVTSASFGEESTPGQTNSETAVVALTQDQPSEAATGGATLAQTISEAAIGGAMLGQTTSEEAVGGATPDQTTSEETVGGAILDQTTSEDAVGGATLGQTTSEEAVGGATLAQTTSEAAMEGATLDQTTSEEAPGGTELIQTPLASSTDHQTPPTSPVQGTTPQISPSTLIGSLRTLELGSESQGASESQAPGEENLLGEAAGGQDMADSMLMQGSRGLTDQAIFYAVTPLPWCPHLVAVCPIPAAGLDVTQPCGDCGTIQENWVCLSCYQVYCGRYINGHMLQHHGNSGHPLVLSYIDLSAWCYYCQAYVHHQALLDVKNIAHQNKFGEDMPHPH
Procedure, shortened: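 Human recombinant HDAC1 or HDAC6 (0.3 μg) reacted with 10 μM Fluor de Lys-SIRT1 substrate and 5-fold compound dilutions for 60 min at 30 °C. Developer II added for 30 min, fluorescence read at Ex 360/Em 460; IC50 calculated from the readings.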

Row | IC50 (human recombinant HDAC1) [nM] | HDAC6 selectivity (fold) (human recombinant HDAC6) | IC50 (human recombinant HDAC6) [nM] | Structure (SMILES)
1 | 10000 | 115 | 87 | O=C(N1CCOCC1)N(Cc1ccc(-c2nnc(C(F)(F)F)o2)cc1)c1ccccc1 [Compound 21249, N-phenyl-N-(4-(5-(trifluoromethyl)-1,3,4-oxadiazol-2-yl)benzyl)morpholine-4-carboxamide]
2 | 6360 | 68 | 93 | O=C(N1CCS(=O)(=O)CC1)N(Cc1ccc(-c2nnc(C(F)(F)F)o2)cc1)c1ccc(F)cc1 [Compound 21389, N-(4-Fluorophenyl)-N-(4-(5-(trifluoromethyl)-1,3,4-oxadiazol-2-yl)benzyl)thiomorpholine-4-carboxamide 1,1-dioxide]
3 | 5280 | 17 | 317 | COc1ccc(N(Cc2ccc(-c3nnc(C(F)(F)F)o3)cc2)C(=O)N2CCS(=O)(=O)CC2)cc1 [Compound 21390, N-(4-methoxyphenyl)-N-(4-(5-(trifluoromethyl)-1,3,4-oxadiazol-2-yl)benzyl)thiomorpholine-4-carboxamide 1,1-dioxide]
4 | 8960 | 65 | 137 | O=C(N1CCS(=O)(=O)CC1)N(Cc1ccc(-c2nnc(C(F)(F)F)o2)cc1)c1cccc(Br)c1 [Compound 21393, N-(3-bromophenyl)-N-(4-(5-(trifluoromethyl)-1,3,4-oxadiazol-2-yl)benzyl)thiomorpholine-4-carboxamide 1,1-dioxide]
5 | 3380 | 12 | 286 | O=C(N1CCS(=O)(=O)CC1)N(Cc1ccc(-c2nnc(C(F)(F)F)o2)cc1)c1cccc(-c2ccoc2)c1 [Compound 21435, N-(3-(furan-3-yl)phenyl)-N-(4-(5-(trifluoromethyl)-1,3,4-oxadiazol-2-yl)benzyl)thiomorpholine-4-carboxamide 1,1-dioxide]
6 | 5730 | 13 | 433 | O=C(N1CCS(=O)(=O)CC1)N(Cc1ccc(-c2nnc(C(F)(F)F)o2)cc1)c1cccc(-c2cccnc2)c1 [Compound 21436, N-(3-(pyridin-3-yl)phenyl)-N-(4-(5-(trifluoromethyl)-1,3,4-oxadiazol-2-yl)benzyl)thiomorpholine-4-carboxamide 1,1-dioxide]
7 | 8220 | 11 | 740 | O=C(N1CCS(=O)(=O)CC1)N(Cc1ccc(-c2nnc(C(F)(F)F)o2)cc1)c1cccc(-c2ccc3c(c2)OCO3)c1 [Compound 21437, N-(3-(benzo[d][1,3]dioxol-5-yl)phenyl)-N-(4-(5-(trifluoromethyl)-1,3,4-oxadiazol-2-yl)benzyl)thiomorpholine-4-carboxamide 1,1-dioxide]
8 | 2700 | 4 | 750 | Cn1ncc2ccc(-c3cccc(N(Cc4ccc(-c5nnc(C(F)(F)F)o5)cc4)C(=O)N4CCS(=O)(=O)CC4)c3)cc21 [Compound 21438, N-(3-(1-methyl-1H-indazol-6-yl)phenyl)-N-(4-(5-(trifluoromethyl)-1,3,4-oxadiazol-2-yl)benzyl)thiomorpholine-4-carboxamide 1,1-dioxide]
9 | 6110 | 6 | 1010 | O=C(N1CCS(=O)(=O)CC1)N(Cc1ccc(-c2nnc(C(F)(F)F)o2)cc1)c1cccc(-c2ccccc2)c1 [Compound 21439, N-([1,1′-biphenyl]-3-yl)-N-(4-(5-(trifluoromethyl)-1,3,4-oxadiazol-2-yl)benzyl)thiomorpholine-4-carboxamide 1,1-dioxide]
10 | 2530 | 18 | 139 | COc1cccc(N(Cc2ccc(-c3nnc(C(F)(F)F)o3)cc2)C(=O)N2CCS(=O)(=O)CC2)c1 [Compound 21441, N-(3-methoxyphenyl)-N-(4-(5-(trifluoromethyl)-1,3,4-oxadiazol-2-yl)benzyl)thiomorpholine-4-carboxamide 1,1-dioxide]
11 | – | 105 | 95 | O=C(NCCN1CCN(CCc2ccncc2)CC1)N(Cc1ccc(-c2nnc(C(F)F)o2)cc1F)c1ccccc1 [Compound 22015, 1-(4-(5-(Difluoromethyl)-1,3,4-oxadiazol-2-yl)-2-fluorobenzyl)-1-phenyl-3-(2-(4-(2-(pyridin-4-yl)ethyl)piperazin-1-yl)ethyl)urea]
12 | – | 42 | 237 | O=C(NCCN1CCN(C/C=C/c2ccccc2)CC1)N(Cc1ccc(-c2nnc(C(F)F)o2)cc1F)c1ccccc1 [Compound 22016, 3-(2-(4-Cinnamylpiperazin-1-yl)ethyl)-1-(4-(5-(difluoromethyl)-1,3,4-oxadiazol-2-yl)-2-fluorobenzyl)-1-phenylurea]
13 | – | 7 | 1380 | O=C(NCCN(Cc1ccccc1)Cc1ccccc1)N(Cc1ccc(-c2nnc(C(F)F)o2)cc1F)c1ccccc1 [Compound 22017, 3-(2-(Dibenzylamino)ethyl)-1-(4-(5-(difluoromethyl)-1,3,4-oxadiazol-2-yl)-2-fluorobenzyl)-1-phenylurea]
14 | – | 4 | 2390 | O=C(N1CCOCC1)N(Cc1ccc(-c2nnc(C(F)F)o2)cc1F)c1nccs1 [Compound 22018, N-(4-(5-(Difluoromethyl)-1,3,4-oxadiazol-2-yl)-2-fluorobenzyl)-N-(thiazol-2-yl)morpholine-4-carboxamide]
15 | – | 79 | 127 | O=C(N1CCOCC1)N(Cc1ccc(-c2nnc(C(F)F)o2)cc1F)c1cccs1 [Compound 22019, N-(4-(5-(Difluoromethyl)-1,3,4-oxadiazol-2-yl)-2-fluorobenzyl)-N-(thiophen-2-yl)morpholine-4-carboxamide]
16 | – | 73 | 138 | O=C(N1CCS(=O)(=O)CC1)N(Cc1ccc(-c2nnc(C(F)F)o2)cc1F)c1cccs1 [Compound 22020, N-(4-(5-(Difluoromethyl)-1,3,4-oxadiazol-2-yl)-2-fluorobenzyl)-N-(thiophen-2-yl)thiomorpholine-4-carboxamide 1,1-dioxide]
17 | – | 101 | 99 | O=C(N1CCS(=O)(=O)CC1)N(Cc1ccc(-c2nnc(C(F)F)o2)cc1F)c1ccsc1 [Compound 22021, N-(4-(5-(Difluoromethyl)-1,3,4-oxadiazol-2-yl)-2-fluorobenzyl)-N-(thiophen-3-yl)thiomorpholine-4-carboxamide 1,1-dioxide]
18 | – | 36 | 281 | CCN1CCN(Cc2cccc(N(Cc3ccc(-c4nnc(C(F)F)o4)cc3F)C(=O)N3CCS(=O)(=O)CC3)c2)CC1 [Compound 22024, N-(4-(5-(difluoromethyl)-1,3,4-oxadiazol-2-yl)-2-fluorobenzyl)-N-(3-((4-ethylpiperazin-1-yl)methyl)phenyl)thiomorpholine-4-carboxamide 1,1-dioxide]
